# Like-named read-outs stand apart in the source and are kept apart here.
# Assays:
# [1] = tested on: patients with type 2 diabetes; format: in vivo, human; conditions: Ipr 50 mg or Met 1000 mg, 24 weeks, n=15 per group
# human islets = format: cell-based
# HFD-fed C57BL/6J mice = format: in vivo, mouse; conditions: 8 weeks
# [2] = tested on: participants with type 2 diabetes; format: in vivo, human; conditions: 32 weeks
# [3] = tested on: patients with T2D and established CVD; format: in vivo, human
# db/db mice = format: in vivo, mouse
# patients with T2DM = format: in vivo, human
# [4] = format: in vivo, mice; conditions: 40 mg/kg
# HCAECs = format: cell-based, human
# [5] = set-up: species or system human; conditions: in vivo
# cultured human podocytes = format: cell-based
# human β-cells = format: cell-based
# perifused human islets = format: cell-based
# [6] = tested on: thromboxane receptor, primary human myotubes; format: cell-based
# [7] = tested on: isolated mouse skeletal muscle (EDL and soleus); format: cell-based; conditions: [14C]-glucose, n=7-8
# mice = format: in vivo, mouse; conditions: acute administration, n=7-8
# [8] = tested on: patients with T2D and metabolic syndrome; set-up: species or system human; conditions: in vivo
# HHTg-OVX rats = format: in vivo, rat; conditions: 12.5 μg/kg b.wt./day s.c., 12 weeks
# LADA individuals [9] = conditions: for GAD65 stimulation index of PBMC proliferation: LADA, median (Q1, Q3)
# LADA individuals [10] = conditions: corresponding findings in type 1 diabetes (n=56), ref not given, cited from earlier work
# isolated human islets = format: cell-based; conditions: metformin added after 0.5 day, n=7
# [11] = tested on: male C57BL/6 mice on 45% HFD; conditions: mouse, in vivo
# [12] = tested on: cultured subcutaneous adipocytes; format: cell-based; conditions: preliminary data
# [13] = tested on: isolated human adipocytes; format: cell-based; conditions: recombinant protein
# [14] = format: in vivo, human; conditions: 6-week treatment period
# patients with T2D = format: in vivo, human
# patients with T2D and HF = format: in vivo, human
# HUVECs = format: cell-based, human
# HHTg rats = format: in vivo, rat; conditions: 10 mg/kg/day, 8 weeks
# [15] = tested on: people with type 2 diabetes; format: in vivo, human; conditions: 15 mg, 28 weeks
# [16] = tested on: adults with type 2 diabetes; format: in vivo, human
# EndocBH5 = format: cell-based, human; conditions: 96 well plates
molecule,measurement,setting,value
"CN(C)C(=N)N=C(N)N [Met, Metformin]",change in visceral fat area,[1],-4.7%
same,caspase 3/7 activity,human islets; cytokines 48 h plus 2.4 μg/ml,1.2±0.1
same,insulin stimulation index,"human islets; cytokines (IL-1β 50 U/ml + IFN-γ 1000 U/ml) 48 h plus 2.4 μg/ml, mean±SEM",4.7±1.6
"OC[C@H]1O[C@@H](c2ccc(Cl)c(Cc3ccc(O[C@H]4CCOC4)cc3)c2)[C@H](O)[C@@H](O)[C@@H]1O [EMPA, Empagliflozin]",final body weight,"HFD-fed C57BL/6J mice; 10 mg/kg/day oral gavage, HFD",44.87 ± 1.42 g
same,FFA,HFD-fed C57BL/6J mice; 10 mg/kg/day,746.30 ± 56.59 µmol/L
same,UACR,HFD-fed C57BL/6J mice; 10 mg/kg/day,21.01 ± 1.99 µg/µmol
same,fat mass,HFD-fed C57BL/6J mice; 10 mg/kg/day,11.75 ± 0.78 g
same,fat/weight,HFD-fed C57BL/6J mice; 10 mg/kg/day,26.08 ± 1.09%
same,triglyceride,HFD-fed C57BL/6J mice; 10 mg/kg/day,29.31 ± 2.71 mg/dL
same,change in GFR from baseline and compared to placebo,[2],-18 mL/min
same,OR (95% CI) for improved risk vs placebo,[3]; all baseline groups,"1.56 (1.30, 1.86)"
same,OR (95% CI) for worsening risk vs placebo,[3]; all baseline groups,"0.70 (0.62, 0.78)"
C[C@H]1N=C(N(C)C)N=C(N)N1 [Imeglimin],random blood glucose levels vs vehicle,"db/db mice; 150 mg/kg B.I.D. oral, age 6-10 weeks",significantly lower
same,loss of RI intensity in the pancreas (SPECT/CT),db/db mice; at 10 weeks,significantly attenuated
Cc1ccc(S(=O)(=O)NC(=O)NN2CC3CCCC3C2)cc1 (stereo not drawn) [gliclazide],incidence of severe hypoglycaemia,patients with T2DM; female,0.75 %/year
same,incidence of severe hypoglycaemia,patients with T2DM; male,0.41 %/year
same,insulin secretion after the OGTT,[4],increased
CCL5,endothelial function,HCAECs,displayed endothelial dysfunction
insulin glargine 300 U/mL [Gla-300],Rates of hypoglycaemia at <3.9 to ≥3.0 mmol/L and <3.0 mmol/L,[5],did not differ between groups
TGF-β,suppression of Tcf21 expression,cultured human podocytes,58%
COc1ccc(C(=O)O[C@H]2CC[C@@]3(C)[C@@H]4CC[C@H]5[C@]6(O)C[C@H](O)[C@@]7(O)[C@@H](CN8C[C@@H](C)CC[C@H]8[C@@]7(C)O)[C@]6(O)C[C@@]53O[C@]24O)cc1OC [veratridine],cytokine- and ER stress-induced β-cell death,human β-cells,increased cell death
same,glucose-stimulated insulin secretion,perifused human islets,increased insulin secretion
I-BOP,increase in glucose incorporation into glycogen,[6]; n=4,+398%
same,increase in glucose oxidation,[6]; n=5,+28%
same,increase in glucose uptake,[6]; n=5,+53%
same,increase in ex-vivo skeletal muscle glucose oxidation,[7],+118%
same,change in glucose tolerance AUC,mice,-34%
CC(C)OC(=O)C(C)(C)Oc1ccc(C(=O)c2ccc(Cl)cc2)cc1 [fenofibrate],"HR for primary outcome, patients with retinopathy at baseline",[8],0.86
NC(=O)N1c2ccccc2C=Cc2ccccc21 [carbamazepine],cytokine- and ER stress-induced β-cell death,human β-cells,protected
same,glucose-stimulated insulin secretion,perifused human islets,moderately reduced
"C[C@]12CC[C@@H]3c4ccc(O)cc4CC[C@H]3[C@@H]1CC[C@@H]2O [Estradiol, 17-β estradiol]","change in ectopic TAG deposition, kidneys",HHTg-OVX rats,-23%
same,"change in ectopic TAG deposition, liver",HHTg-OVX rats,-16%
rhGAD65,GAD65 stimulation index of PBMC proliferation,"LADA individuals [9]; 2 months from baseline, 3 injections of 4 μg","2.16 (1.25, 3.06)"
same,GAD65 stimulation index of PBMC proliferation,LADA individuals [9]; 5 months from baseline,"2.34 (1.81, 3.58)"
same,postprandial 2 hour C-peptide,LADA individuals [9]; in vivo,"1.45 (1.25, 1.85) nmol/L"
same,serious adverse events,LADA individuals [9]; interim analysis at 5 months,no treatment-related serious adverse events
same,GAD65 stimulation index of PBMC proliferation,LADA individuals [10]; 2 months,"2.77 (1.96, 6.05)"
same,GAD65 stimulation index of PBMC proliferation,LADA individuals [10]; 5 months,"3.19 (2.02, 6.19)"
CN(C)C(=N)N=C(N)N [metformin],reduction of insulin secretion vs 1 day palmitate only,isolated human islets,18%
same,loss of excess body weight vs untreated mice,[11],30%
Fas ligand [FasL],isoproterenol-induced UCP1 protein levels,[12],decreased
oncostatin-M,stimulation of basal lipolysis,[13],+47%
"CCOc1ccc(Cc2cc([C@@H]3O[C@H](CO)[C@@H](O)[C@H](O)[C@H]3O)ccc2Cl)cc1 [DAPA, dapagliflozin]",mild hypoglycemia occurrence,[14],once
same,fractional renal extraction of glucose,T2DM and NGT subjects; NGT,1.62± 1.4
same,renal glucose uptake,T2DM and NGT subjects; NGT,0.27 ± 0.08 mg/kg.min
same,fractional renal extraction of glucose,T2DM and NGT subjects; T2DM,2.99±1.0
same,renal glucose uptake,T2DM and NGT subjects; T2DM,0.347 ± 0.06 mg/kg.min
OC[C@H]1O[C@@H](c2ccc(Cl)c(Cc3ccc(O[C@H]4CCOC4)cc3)c2)[C@H](O)[C@@H](O)[C@@H]1O [empagliflozin],"∆LVEF Rest, E vs I",patients with T2D; cardiac MRI,-0±2%
same,"∆LVEF Rest, treatment vs washout",patients with T2D; cardiac MRI,2 ±1%
same,"∆LVPFR Rest, E vs I",patients with T2D; cardiac MRI,-55 ± 19 mL/s
same,"∆LVPFR Rest, treatment vs washout",patients with T2D; cardiac MRI,-38 ± 19 mL/s
same,"∆LVEF Stress, E vs I",patients with T2D; chronotropic stress,1±1%
same,"∆LVEF Stress, treatment vs washout",patients with T2D; chronotropic stress,-1±2%
same,"∆LVPFR Stress, E vs I",patients with T2D; chronotropic stress,-11 ± 47 mL/s
same,"∆LVPFR Stress, treatment vs washout",patients with T2D; chronotropic stress,-4 ± 45 mL/s
same,3-OH butyrate,"patients with T2D; fasting, end of 5 weeks",0.27 ± 0.03 mM
same,FFAs,"patients with T2D; fasting, end of 5 weeks",0.60 ± 0.03 mM
same,serum insulin,"patients with T2D; fasting, end of 5 weeks",103 ± 14 pM
same,reduction of KIM-1 levels compared to placebo,"patients with T2D and HF; 25 mg, week 48, EFFORT-2",38%
same,LVEDD difference from placebo,"patients with T2D and HF; week 24, EFFORT-1",-7.88
same,LVEDD difference from placebo,"patients with T2D and HF; week 48, EFFORT-1",-4.40
same,posterior wall diameter difference from placebo,"patients with T2D and HF; week 48, EFFORT-2",-2.29
same,expression of inflammatory markers,HUVECs,did not significantly impact
same,patients with improvement in KDIGO CKD risk,[3]; high baseline risk group,27.1%
same,patients with worsening KDIGO CKD risk,[3]; high risk baseline group,23.3%
same,patients with worsening KDIGO CKD risk,"[3]; low risk baseline group, 10, 25 mg pooled",26.0%
same,patients with improvement in KDIGO CKD risk,[3]; moderate baseline risk group,24.6%
same,patients with worsening KDIGO CKD risk,[3]; moderate risk baseline group,24.4%
same,patients with improvement in KDIGO CKD risk,[3]; very high baseline risk group,26.2%
same,non-fasting glucose and insulin,HHTg rats,markedly decreased
same,serum triglycerides levels,HHTg rats,reduced
tirzepatide [TZP],"insulin sensitivity (M-value), first and second phase ISR and beta-cell glucose sensitivity during EGC and HGC",[15],more than SEMA and placebo
CC[C@H](C)[C@H](NC(=O)[C@H](CC(C)C)NC(=O)[C@H](Cc1c[nH]c2ccccc12)NC(=O)[C@H](CCC(N)=O)NC(=O)[C@@H](NC(=O)[C@H](Cc1ccccc1)NC(=O)[C@H](C)NC(=O)[C@H](CCCCNC(=O)COCCOCCNC(=O)COCCOCCNC(=O)CC[C@H](NC(=O)CCCCCCCCCCCCCCCCCCC(=O)O)C(=O)O)NC(=O)[C@H](CCC(N)=O)NC(=O)[C@H](C)NC(=O)[C@@H](NC(=O)[C@H](CCCCN)NC(=O)[C@H](CC(=O)O)NC(=O)[C@H](CC(C)C)NC(=O)C(C)(C)NC(=O)[C@@H](NC(=O)[C@H](CO)NC(=O)[C@H](Cc1ccc(O)cc1)NC(=O)[C@H](CC(=O)O)NC(=O)[C@H](CO)NC(=O)[C@@H](NC(=O)[C@H](Cc1ccccc1)NC(=O)[C@@H](NC(=O)CNC(=O)[C@H](CCC(=O)O)NC(=O)C(C)(C)NC(=O)[C@@H](N)Cc1ccc(O)cc1)[C@@H](C)O)[C@@H](C)O)[C@@H](C)CC)[C@@H](C)CC)C(C)C)C(=O)N[C@@H](C)C(=O)NCC(=O)NCC(=O)N1CCC[C@H]1C(=O)N[C@@H](CO)C(=O)N[C@@H](CO)C(=O)NCC(=O)N[C@@H](C)C(=O)N1CCC[C@H]1C(=O)N1CCC[C@H]1C(=O)N1CCC[C@H]1C(=O)N[C@@H](CO)C(N)=O [tirzepatide],MD in triglycerides vs GLP-1 receptor agonists,"[16]; 5 mg once weekly, random effects",-12.51 mg/dL
same,MD in triglycerides vs GLP-1 receptor agonists,[16]; 15 mg once weekly,-24.98 mg/dL
same,increased insulin secretion over high glucose,EndocBH5,> 3 fold

# Source: article PMC9362525 (Diabetologia, 2022)
